Experiments:
Assay in all cases: relative viability (nuclei count vs DMSO), 5 days (fraction); higher = more cells survive
Carfilzomib + Alpelisib = compound: CC(C)C[C@H](NC(=O)[C@H](CCc1ccccc1)NC(=O)CN1CCOCC1)C(=O)N[C@@H](Cc1ccccc1)C(=O)N[C@@H](CC(C)C)C(=O)[C@@]1(C)CO1 [Carfilzomib] + Cc1nc(NC(=O)N2CCC[C@H]2C(N)=O)sc1-c1ccnc(C(C)(C)C(F)(F)F)c1 [Alpelisib] (partner 2 µM)
Outline: (§1)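 Relative viability divides the nuclei count in treated wells by that in vehicle wells. Lung cancer cell lines were seeded in 1536-well plates, dosed by pin tool the next day, and fixed and stained after 5 days in one step with final 0.05% Triton X-100, 1% formaldehyde and 1 ug/ml Hoechst. Dosing was a single drug or a fixed anchor-drug dose plus five library-drug doses (not always all listed) in √10 steps, and values are medians of duplicate plates imaged at 4×.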

Carfilzomib + AZD7762 = compound: CC(C)C[C@H](NC(=O)[C@H](CCc1ccccc1)NC(=O)CN1CCOCC1)C(=O)N[C@@H](Cc1ccccc1)C(=O)N[C@@H](CC(C)C)C(=O)[C@@]1(C)CO1 [Carfilzomib] + NC(=O)Nc1cc(-c2cccc(F)c2)sc1C(=O)N[C@H]1CCCNC1 [AZD7762] (partner 0.2 µM)
Outline: as §1

Olaparib + Pictilisib = compound: O=C(c1cc(Cc2n[nH]c(=O)c3ccccc23)ccc1F)N1CCN(C(=O)C2CC2)CC1 [Olaparib] + CS(=O)(=O)N1CCN(Cc2cc3nc(-c4cccc5[nH]ncc45)nc(N4CCOCC4)c3s2)CC1 [Pictilisib] (partner 1 µM)
Outline: as §1

Carfilzomib + Luminespib = compound: CC(C)C[C@H](NC(=O)[C@H](CCc1ccccc1)NC(=O)CN1CCOCC1)C(=O)N[C@@H](Cc1ccccc1)C(=O)N[C@@H](CC(C)C)C(=O)[C@@]1(C)CO1 [Carfilzomib] + CCNC(=O)c1noc(-c2cc(C(C)C)c(O)cc2O)c1-c1ccc(CN2CCOCC2)cc1 [Luminespib] (partner 0.01 µM)
Outline: as §1

Crizotinib + OSI-027 = compound: C[C@@H](Oc1cc(-c2cnn(C3CCNCC3)c2)cnc1N)c1c(Cl)ccc(F)c1Cl [Crizotinib] + COc1cccc2cc(-c3nc([C@H]4CC[C@H](C(=O)O)CC4)n4ncnc(N)c34)[nH]c12 [OSI-027] (partner 0.5 µM)
Outline: as §1

NCI-H1793
relative viability (Carfilzomib + Alpelisib; first compound 0.003162 µM): 0.767
relative viability (Carfilzomib + Alpelisib; first compound 0.01 µM): 0.804
relative viability (Carfilzomib + Alpelisib; first compound 0.03162 µM): 0.68
relative viability (Carfilzomib + Alpelisib; first compound 0.1 µM): 0.356
relative viability (Carfilzomib + AZD7762; first compound 0.001 µM): 0.481
relative viability (Carfilzomib + AZD7762; first compound 0.003162 µM): 0.883
relative viability (Carfilzomib + AZD7762; first compound 0.01 µM): 0.599
relative viability (Carfilzomib + AZD7762; first compound 0.03162 µM): 0.757
relative viability (Carfilzomib + AZD7762; first compound 0.1 µM): 0.506
relative viability (Olaparib + Pictilisib; first compound 0.08 µM): 0.515
relative viability (Olaparib + Pictilisib; first compound 0.253 µM): 0.389
relative viability (Olaparib + Pictilisib; first compound 2.53 µM): 0.251
relative viability (Olaparib + Pictilisib; first compound 8 µM): 0.298
relative viability (Carfilzomib + Luminespib; first compound 0.003162 µM): 0.216
relative viability (Carfilzomib + Luminespib; first compound 0.01 µM): 0.172
relative viability (Carfilzomib + Luminespib; first compound 0.03162 µM): 0.181
relative viability (Carfilzomib + Luminespib; first compound 0.1 µM): 0.154
relative viability (Crizotinib + OSI-027; first compound 0.03162 µM): 0.256
relative viability (Crizotinib + OSI-027; first compound 0.1 µM): 0.278
relative viability (Crizotinib + OSI-027; first compound 1 µM): 0.266
